From US4939124A, “Treatment and diagnosis of dementia” (Laboratorios Serono S.A., priority 1988, dated 1990)

Key:
[1] = tested on: Male Wistar rats; test: Locomotor activity in open field paradigm (OUCEM-86), i.c.v. injection; format: in vivo
Source text: (§1) To clarify whether SS and GRF display at the central level the same antagonistic effect that they have at the pituitary level, the effects of these neuropeptides on several behavioral parameters have been studied using the OUCEM-86^TM (Osaka University Computerized Electronic Maze). The system is integrated by the following components: a Programmable Electronic Platform (PEP) (620×620 mm) equipped with 48 photo beam sensors (OPX-T30); a Programming Panel (PP) (Model BECM-0064) for paradigm stimulation; a Shock Generator Scrambler (SGS) (Model BSG-1065) to apply continuous or discontinuous electric current to the PEP; a Control Station (CS) (BEC 16-Bio Computer Control Station BCS-1105; Bio Medica, Ltd., Osaka) which processes inputs/outputs as an interface device to automatically computerize behavioral parameters; and a Computer System (NEC PC-9801 VM2) with 1 megabyte Random Access Memory (RAM) for data processing and experimental setting.
(§2) Male Wistar rats (175-200 g) (N =5-8 rats/group) received intracerebroventricular (i.c.v.) injections of GRF1-44 and SS-14 over a range of 0.1 to 10 mcg. Then the rats were studied in the OUCEM under two different paradigms (e.g., open field and maze paradigms).
The animals were placed in the PEP for 30-minute periods and locomotor activity (LA) was automatically recorded in an open field paradigm. Total LA is represented as total inputs (I/O) including movements in four-footed position (4F) and in two-footed position (2F), grooming, rearing and jumping activity, while linear (horizontal) movements (4F) are represented as pulses per minute (pm) or cm^2 /min

[2] = tested on: female in-patients with primary degenerative dementia (Alzheimer like); test: 8-day GRF (1-29) NH2 therapy, MMS Folstein test and Crichton's scale; format: in vivo, human; settings: for MMS Folstein and Crichton's scale scores and clinical findings: 8 days, 12 hours, 24 hours, 7 days
Description: Twenty female in-patients with primary degenerative dementia (Alzheimer like) aged 67-84 years were divided in two therapy-groups with GRF (1-29) NH2. All patients were treated with this product for 8 days with either of the following schedules: (I) 250 mcg s.c. twice daily (II) 50 mcg i.v. twice daily Therapy was started after a 15-day wash-out period for psychotropic-drugs. Evolution of patients was assessed using the MMS Folstein test and Chrichton's scale test at 12 hours, 24 hours and 7 days after starting with GRF. The statistical evaluation was made using Friedman test with a risk level p<0,01 (highly significant differences).

[3] = tested on: Male Wistar rats; test: Locomotor activity and learning in maze paradigm (escape from 1.5 mA shock area), i.c.v. injection; format: in vivo; settings: GRF1-44 5 mcg i.c.v., 30 minutes; control 17.12±5.42 pm
[4] = tested on: Male Wistar rats; test: as above; format: in vivo
Description: The animals had to learn to escape from the shock area in order to avoid a continuous 1.5 mA electric shock. Experimental time --30 minutes.
The rats were treated intracerebroventricularly with SS-14 (1 mcg) and GRF1-44 (1 mcg) and their behavior was automatically recorded by computer using the maze paradigm shown in FIG. 1. p/t denotes pulses per time unit (minute). Locomotor activity was quantified in pulses per minute or cm^2 /min. Total inputs (I/O) in neutral position (white bars) and shock position (black bars) denote how many times the animals enter neutral and shock areas. The N/S ratio results from dividing I/O in neutral position by I/O in shock position and is interpreted as an index of learning in the 30-minute experimental period. The positional time (seconds) represents how long the animals stay in neutral (white bars) or shock (black bars) areas. N-sp and S-sp (in seconds) indicate the time-latency per movement or input in neutral (white bars) and shock (black bars) areas, respectively.
as §1, §2
The amount of inputs (I/O) induced by SS was 103.5±29.5 (control =216.25±55.19, t=8.49, p<0.005) in the neutral area (NA) and 77.14±13.5 I/O in the shock area (SA) (control =298±40, t=1.26, n.s.). GRF generated 459.35±32.5 I/O in NA (t=18.13, p<0.005) and 340.5±63.5 I/O in SA (t=9.07, p<0.005) (FIGS. 1C,3). The NA/SA (N/S) ratios for control, SS- and GRF-treated rats were 0.72, 1.33, and 1.35, respectively (FIG. 2).

Substance: growth hormone releasing factor [GRF]
- locomotor activity (LA), open field ([1]; 1 mcg i.c.v. (SS-14 / GRF1-44), 30-minute period, control 31.16±6.90 pm): 47.60±5.35 pm
- locomotor activity (LA), open field ([1]; GRF1-44 1 mcg i.c.v., control 1122±248 cm^2 /min): 1713.6±69.5 cm^2 /min
- qualitative behavioral change, open field ([1]; GRF 1 mcg i.c.v.): hyperkinetic syndrome characterized by compulsive, uncontrolled movements
- comparison of i.v. and s.c. groups (increase in scores and clinical findings) ([2]; GRF (1-29) NH2 50 mcg i.v. vs 250 mcg s.c. twice daily): more important in the group with i.v. GRF administration than in the one with s.c. administration
- persistence of effect ([2]; GRF (1-29) NH2, both groups): remains significant over the whole 7 days of treatment
- start of effect after administration ([2]; GRF (1-29) NH2, both groups): 12 h
- sphincter control and general psychomotricity after discontinuation ([2]; GRF (1-29) NH2 administration discontinued): returned to pretreatment situation
- sphincter control and general psychomotricity (nurse's report) ([2]; during treatment with GRF (1-29) NH2): improvement
- MMS Folstein and Crichton's scale scores and clinical findings ([2]; group I: GRF (1-29) NH2 250 mcg s.c. twice daily): significant increase
- MMS Folstein and Crichton's scale scores and clinical findings ([2]; group II: GRF (1-29) NH2 50 mcg i.v. twice daily): significant increase
- locomotor activity (LA), maze paradigm [3]: 90.2±8.4 pm
- locomotor activity (LA), maze paradigm ([4]; 1 mcg i.c.v., 30 minutes, control 17.12±5.42 pm): 26.66±3.15 pm
- NA/SA (N/S) ratio (index of learning) ([4]; 1 mcg i.c.v., control 0.72): 1.35
- amount of inputs (I/O) in the neutral area (NA) ([4]; 1 mcg i.c.v., control 216.25±55.19): 459.35±32.5 I/O
- amount of inputs (I/O) in the shock area (SA) ([4]; 1 mcg i.c.v., control 298±40): 340.5±63.5 I/O
- I/O rate and positional time in SA ([4]; GRF i.c.v., hyperkinetic syndrome, vs control group): significantly higher than in the control group
- learning abilities (N/S ratio as index) ([4]; doses of approximately 6.10×10^-10 mol (SS) and 1.98×10^-10 mol (GRF), i.c.v.): improve learning abilities
